Assay results: patent US8710184B2, “Motilin-like peptide compound having transmucosal absorbability imparted thereto” (Daiichi Sankyo Company, Limited, priority 2009, dated 2014)

Assays:
[1] = Pharmacokinetic experiment on pulmonarily administered native motilin and motilin derivative compounds in rats (RIA); assay type: in vivo, rat; settings: 25 μg/rat; for BA: pulmonary administration, relative to AUC of intravenous native motilin
Method: As test animals, 7- to 10-wk old male SD rats (purchased from CHARLES RIVER LABORATORIES JAPAN, INC.) that consisted of 3 rats per a group were subjected to the following experiment. Native motilin or motilin derivative compounds were dissolved in an aqueous solution of 0.1 N acetic acid to prepare a solution at a concentration of 1 mg/mL and 25 μL of the solution was administered into the polyethylene tube through the trachea by means of an intratracheal liquid spraying device (MicroSprayer; product of Penn Century). […] In the measurement, the respective derivatives were used as standard substances to construct calibration curves for determining the plasma levels.
Using these values, bioavailability (BA (%)) was calculated by the following equation: BA(%)=[(AUC/Dose)/(AUC(motilin—iv)/Dose(motilin—iv))]×100 • AUC: AUC (ng·min/mL) after pulmonary administration • Dose: dose (μg/kg) in pulmonary administration • AUC (motilin_iv): AUC (ng·min/mL) after intravenous administration of native motilin • Dose (motilin_iv): dose (μg/kg) in intravenous administration of native motilin.

[2] = HPLC fractionation and RIA of rat plasma after pulmonary administration (unaltered form vs metabolites); assay type: in vivo; settings: rat, in vivo
Method: This example was conducted with a view to measuring by RIA the changes that occurred in rats in terms of the plasma concentrations of pulmonarily administered native motilin and motilin derivative compounds. When the RIA technique is applied, all substances that react with the anti-motilin antibody are detected, so aside from unaltered forms, metabolites that react with the antibody are also likely to be detected.
To be more specific, a polyethylene tube (PE-240; product of Clay Adams) was inserted into the trachea of 7-wk old male SD rats (purchased from CHARLES RIVER LABORATORIES JAPAN, INC.); native motilin or compound 2 (MT114) was dissolved in an aqueous solution of 0.1 N acetic acid to prepare a solution at a concentration of 1 mg/mL and 25 μL of the solution was administered into the polyethylene tube through the trachea by means of an intratracheal liquid spraying device (MicroSprayer; product of Penn Century). Five minutes after the administration, blood was sampled through the abdominal aorta and treated as in Comparative Example 1 to separate plasma. […] For each sample, an eluate was sampled at one-minute intervals from just after the sample injection to a 40-minute after sample injection and the immunological activity in each fraction was measured by RIA.

[3] = Motilin degradation experiment using a lung homogenate supernatant; assay type: in vitro ADME
Text: To solve this problem, the present inventors first assumed that motilin might be degraded after noninvasive transmucosal administration and performed a motilin degradation experiment using a lung homogenate supernatant.

[4] = Pharmacokinetic experiment on intravenously administered native motilin in rats (RIA); assay type: in vivo; settings: male, SD, rat, plasma, 100 ug/kg, intravenous, 100 μg/kg
Method: Native motilin was administered intravenously to rats and its plasma levels were measured.
As test animals, 7-wk old male SD rats (purchased from CHARLES RIVER LABORATORIES JAPAN, INC.) that consisted of 3 rats per a group were subjected to the following experiment. Native motilin was dissolved in a 5% mannitol solution to prepare a solution at a concentration of 100 μg/mL and this solution was administered to each rat at a dose of 1 mL/kg through the tail vein by means of a syringe and a 26G needle (both being products of TERUMO).

[5] = Pharmacokinetic experiment on intranasally administered native motilin and a motilin derivative compound in monkeys (RIA); assay type: in vivo, cynomolgus monkey; settings: intranasal administration
Method: This example was conducted with a view to measuring by RIA the changes that occurred in monkeys in terms of the plasma concentrations of transnasally administered native motilin and a motilin derivative compound.
In the experiment, 10- to 11-year old male cynomolgus monkeys were used. Native motilin or compound 2 and microcrystalline cellulose were mixed at a ratio of 1:40 to prepare intranasal preparations, 20-mg portions of which were filled into gelatin capsules. Each capsule was administered into the right nasal cavity of each animal by means of an intranasal administration device (product of Hitachi Automotive Systems, Ltd.). Before administration and 5, 10, 15, 20, 30, 60, 120 and 180 minutes after administration, blood was sampled through the cephalic vein. The collected blood sample was treated as in Comparative Example 2 to separate plasma and the concentrations of native motilin and the motilin derivative compound in plasma were measured by RIA. In the measurement, the respective derivatives were used as standard substances to construct calibration curves for determining the plasma levels.
Using these values, bioavailability (BA (%)) was calculated by the following equation: BA(%)=[(AUC/Dose)/(AUC(iv)/Dose(iv))]×100 • AUC: AUC (ng·min/mL) after intranasal administration • Dose: dose (μg/kg) in intranasal administration • AUC (iv): AUC (ng·min/mL) after intravenous administration of each compound • Dose (iv): dose (μg/kg) in intravenous administration of each compound.

[6] = tested on: conscious dog's gastrointestinal tract; experiment: Fasting IMC inducing activity in conscious dogs (force transducers); assay type: in vivo
Text: More specifically, dogs under anesthesia were subjected to a surgical operation in which force transducers were sutured to the serous membranes of the gastric antrum, duodenum, jejunum and ileum along the ring-shaped muscle and, thereafter, the strain from each transducer was sent to a recorder via an amplifier.

in vivo = settings: male, cynomolgus monkey, iv, 10 ug/kg
Method: In this example, native motilin and a motilin derivative compound were administered intravenously to monkeys and their plasma concentrations were measured.
As test animals, 8- to 9-year old male cynomolgus monkeys (N=1-2 per group) were subjected to the following experiment. Native motilin and compound 2 were each dissolved in a 5% mannitol solution to prepare solutions at a concentration of 100 μg/mL; the solutions were administered to the animals at a dose of 0.1 mL/kg through the right cephalic vein by means of a syringe and a needle (both being products of TERUMO). Before administration and 5, 10, 15, 20, 30 and 60 minutes after administration, blood was sampled through the left cephalic vein.
To the collected sample, a 10% EDTA.2Na.2H2O solution was immediately added at a volume ratio of 1:100 and the plasma was separated by centrifugation. The plasma was immediately mixed with a 5,000 IU/mL aprotinin solution at a volume ratio of 1:10 and stored at −80° C. until use in measurement.
Measurement of the plasma concentrations of native motilin and the motilin derivative compound was conducted by the radioimmunoassay (RIA) technique using an anti-motilin antibody. Stated more specifically, after adding an anti-motilin antibody to the plasma sample, [^125I-Tyr7] motilin was added for a competitive reaction to take place. By subsequent addition of a secondary antibody, the motilin binding to the anti-motilin antibody was precipitated and after separating the supernatant, the radioactivity in the precipitating faction was measured with a γ-counter (product of PerkinElmer).
From the obtained profiles for the plasma concentrations of native motilin and the motilin derivative compound, the plasma concentration at time zero (C0) and the area under curve for plasma concentrations (AUC) were calculated as pharmacokinetic parameters; C0 was determined by extrapolation and AUC by the trapezoidal method.

[7] = Non-Patent Document 18; cited from earlier work
[8] = male, cynomolgus monkey, plasma, inhaled or intranasal, 0.49 mg/animal, mean for N = 1-2

| Compound | Cmax ([1]; male, SD, plasma, other: pulmonary administration (intratracheal liquid spray)) | AUC ([1]; male, SD, plasma, other: pulmonary administration (intratracheal liquid spray), trapezoidal method) | BA [1] | BA ([1]; listed as native motilin) | immunological activity peaks in HPLC fractions of plasma [2] | degradation in lung homogenate supernatant [3] | C0 ([4]; by extrapolation, read-out: plasma concentration at time zero (C0)) | AUC ([4]; trapezoidal method, read-out: area under curve for plasma concentrations (AUC) (converted)) | BA ([5]; relative to intravenous AUC of each compound) | AUC [5, 8] | Cmax [5, 8] | IMC Inducing activity ([6]; fasting period, intravenous, 0.1 μg/kg) | duration of contraction of the duodenum ([6]; intravenous 0.1 μg/kg, FIG. 1) | duration of contraction of the gastric antrum ([6]; intravenous 0.1 μg/kg, FIG. 1) | AUC (in vivo) | C0 (in vivo) | half-life in plasma [7] |
| --- | --- | --- | --- | --- | --- | --- | --- | --- | --- | --- | --- | --- | --- | --- | --- | --- | --- |
| CC[C@H](C)[C@H](NC(=O)[C@@H]1CCCN1C(=O)[C@@H](NC(=O)[C@@H](N)Cc1ccccc1)C(C)C)C(=O)N[C@@H](Cc1ccccc1)C(=O)N[C@H](C(=O)N[C@@H](Cc1ccc(O)cc1)C(=O)NCC(=O)N[C@@H](CCC(=O)O)C(=O)N[C@@H](CC(C)C)C(=O)N[C@@H](CCC(N)=O)C(=O)N[C@@H](CCCNC(=N)N)C(=O)N[C@@H](CCSC)C(=O)N[C@@H](CCC(N)=O)C(=O)N[C@@H](CCC(=O)O)C(=O)N[C@@H](CCCCN)C(=O)N[C@@H](CCC(=O)O)C(=O)N[C@@H](CCCNC(=N)N)C(=O)N[C@@H](CC(N)=O)C(=O)N[C@@H](CCCCN)C(=O)NCC(=O)N[C@@H](CCC(N)=O)C(=O)O)[C@@H](C)O [Native motilin, reference compound] | 7.84 ± 0.98 ng/mL | 1.58 ng·h/mL | 3.3 ± 0.1% | 3.3% | detected only at the elution point corresponding to the administered compound (in unaltered form) | found to be degraded | 1800 ng/mL | 60 ng·h/mL | 3.6% | 4.02 ng·h/mL | 13.6 ng/mL | Positive | about 10 minutes | about 10 minutes | 13.1 ng·h/mL | 233 ng/mL |  |
| atilmotin |  |  |  |  |  |  |  |  |  |  |  |  |  |  |  |  | about 10 minutes |
